# From patent US9855239B2, “Methods for the treatment and prevention of age-related retinal dysfunction” (University of Washington, priority 2008, dated 2018)
# “Also recorded” adds a separate entry of the source.
# Columns and labels:
# Assay type in all cases: in vivo, mouse
# [1] = Retinoid kinetics in the eyes during dark adaptation, long-term treatment; conditions: 10 months of age, N1 vs C1, 60 min after the bleach (p<0.01)
# Description: Recovery of the ERG response (dark adaptation) following bleach was measured by monitoring the amplitude of a-waves after retinal exposure to intense constant illumination (500 cd·m^−2, ˜90% bleached rhodopsin) for 3 min. […] Retinoid kinetics in the eyes of each group were quantitatively evaluated during 60 min of dark adaptation after 3 min of bleaching at four subsequent time points of dark adaptation (0, 10, 30, and 60 min). […] Neither 9-cis-retinal nor 9-cis-retinyl esters were found in eyes from untreated groups (data not shown).
# Two weeks after the last gavage with either, 9-cis-R-Ac, all-trans-R-Ac or vehicle, groups of 48 hr dark-adapted mice were analyzed for recovery of dark adaptation after light exposure, purified rhodopsin/opsin and retinoids in the eye and retinal morphology (FIG. 1C; Methods). Mice were exposed to light of intensity 500 cd·m^−2 that bleached ˜90% of rhodopsin, anesthetized and monitored by ERG for one hr to evaluate recovery of dark adaptation. Rhodopsin was purified and rhodopsin/opsin ratios was determined. Retinoid analyses were performed on dissected eyes removed at 0, 10, 30, and 60 min after exposure to the same amount of light. Mice used to evaluate retinal morphology were not exposed to photobleaching prior to analysis. […]
# [2] = Retinoid levels in eyes by HPLC, single dose
# Description: Forty eight hr dark-adapted, 10-month-old mice were gavaged with a single dose (˜80 mg/kg body weight) of 9-cis-R-Ac or control vehicle and exposed to strong illumination for 20 min (500 cd·m^−2 that bleached ˜90% rhodopsin). Next, mice were dark-adapted for 16 hr after which various analyses were performed (FIG. 1A). […] To investigate whether 9-cis-retinal was utilized to form isorhodopsin and to assess how much unliganded opsin was present in the mouse eyes, rhodopsin, isorhodopsin and opsin were purified by immunoaffinity chromatography from treated and control groups of mice. […] After bleaching, 9-cis-retinal is bound to opsin even in the presence of a functional retinoid cycle that produces 11-cis-retinal to regenerate rhodopsin. Eyes from non-bleached or bleached and dark-adapted untreated mice contained a small amount of free opsin.
# 9-cis-R-Ac was prepared as previously described (Batten, M. L., et al. PLoS medicine 2, e333 (2005); Batten, M. L., et al. J Biol Chem 279, 10422-10432 (2004)). A dose of ˜80 mg/kg body weight of 9-cis-R-Ac in 150 μl vegetable oil was administered via gavage to each treated animal. Prior to single dose experiments (FIG. 1A, Table 1), 10-month-old mice were dark-adapted for more than 48 hr, gavaged with 9-cis-R-Ac or vehicle control solution 1 hr before bleaching, exposed to light for 20 min at 500 cd·m^−2 and dark-adapted for 16 hr before analysis.
# All experimental procedures related to extraction, derivatization and separation of retinoids were carried out under dim red light provided by a Kodak No. 1 safelight filter (transmittance>560 nm) as described previously (Van Hooser, J. P., et al. Proceedings of the National Academy of Sciences of the United States of America 97, 8623-8628 (2000); Van Hooser, J. P., et al. J Biol Chem, 277, 19173-19182 (2002); Maeda, A., et al. J Biol Chem 280, 18822-18832 (2005); Van Hooser, J. P., Garwin, G. G. & Saari, J. C. Methods Enzymol 316, 565-575 (2000)). Eluted fractions of purified rhodopsin from 6 mouse eyes were combined (total 3.0 ml) and mixed with an equal volume of 100% methanol. The mixture was vortexed and incubated on ice for 15 min. Retinoids were extracted twice with an equal volume of 100% hexane (6 ml total). The combined extracts were dried under argon and retinoids were separated by normal phase HPLC (Beckman, Ultrasphere-Si, 5 μm, 4.6×250 mm) with 10% ethyl acetate and 90% hexane at a flow rate of 1.4 ml/min and detected at 325 nm by an HPI 100 HPLC with a diode array detector and HP Chemstation A.03.03 software. A2E was analyzed as previously described (Maeda, A., et al. J Biol Chem, 280, 18822-18832 (2005)).
# [3] = Hepatic retinoic acid levels after long-term treatment; conditions: all groups
# Description: To evaluate the safety of long-term administration of 9-cis-R-Ac, A2E accumulation was measured (FIG. 6A), because retinals spontaneously condense to this compound (Mata, N. L., Weng, J. & Travis, G. H. Proceedings of the National Academy of Sciences of the United States of America 97, 7154-7159 (2000); Parish, C. A., Hashimoto, M., Nakanishi, K., Dillon, J. & Sparrow, J. Proceedings of the National Academy of Sciences of the United States of America 95, 14609-14613 (1998)).
# Analysis of retinoic acid in the liver was carried out as described before (Batten, M. L., et al. PLoS Medicine 2, e333 (2005)) by an Agilent 1100 HPLC with two tandem normal phase columns: a Varian Microsorb Silica 3 μm, 4.6×100 mm (Varian, Palo Alto, Calif.) and an Ultrasphere-Si, 5 μm, 4.6×250 mm column. An isocratic solvent system of 1000:4.3:0.675 hexane:2-propanol:glacial acetic acid (v/v) was used at a flow rate of 1 ml/min at 20° C. with detection at 355 nm. Calibration was done with standards of all-trans-RA and 9-cis-RA purchased from Sigma-Aldrich.
structure (smiles),measurement,setting,value
"CC(=O)OC/C=C(C)/C=C/C=C(C)\C=C\C1=C(C)CCCC1(C)C [9-cis-R-Ac, 9-cis-retinyl acetate]",regeneration level of 11-cis-retinal in eyes,[1],significantly higher
same,9-cis-retinal in eyes,"[2]; exposed to intense light, treated mice",Significant amounts of 9-cis-retinal were detected; also recorded: detected only in the eyes of 9-cis-R-Ac treated mice
same,9-cis-retinyl esters in eyes (RPE),[2]; treated and exposed to intense light,significant amount of 9-cis-retinyl esters; also recorded: easily detectable; also recorded: detected only in the eyes of 9-cis-R-Ac treated mice
same,amounts of 11-cis-retinal and all-trans-retinyl esters in eyes,[2]; treated vs control,not significantly affected; also recorded: similar
same,9-cis-retinal in eyes,[2]; unbleached treated mouse eyes,Only trace amounts
same,hepatic retinoic acid levels,[3],below detectable levels; also recorded: did not accumulate
